Measured values published in BindingDB's records for doi:10.1021/cb500009r (Shanghai Center For Systems Biomedicine, 2014).

What was measured:
[1] = biological target: T1, Dopa decarboxylase (Aromatic L-amino acid decarboxylase), isoform CRA_a (Homo sapiens, UniProt Q53Y41); assay: DDC-MDH-PEPC-Linked assay; details: pH 8.05; 37 °C
T1 sequence (Q53Y41 whole entry): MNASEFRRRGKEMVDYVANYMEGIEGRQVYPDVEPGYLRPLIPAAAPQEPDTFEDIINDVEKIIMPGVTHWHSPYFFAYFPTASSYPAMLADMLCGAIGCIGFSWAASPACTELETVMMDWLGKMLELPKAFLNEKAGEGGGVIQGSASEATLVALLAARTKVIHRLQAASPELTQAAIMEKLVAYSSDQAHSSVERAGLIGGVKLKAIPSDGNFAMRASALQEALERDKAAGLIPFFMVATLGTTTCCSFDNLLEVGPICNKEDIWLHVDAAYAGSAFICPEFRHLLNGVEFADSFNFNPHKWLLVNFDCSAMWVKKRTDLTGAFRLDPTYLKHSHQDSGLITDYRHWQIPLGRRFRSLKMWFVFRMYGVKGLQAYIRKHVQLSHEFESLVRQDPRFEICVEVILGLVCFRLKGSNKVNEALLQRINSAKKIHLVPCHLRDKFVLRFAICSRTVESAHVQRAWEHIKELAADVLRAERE
Experimental: To the wells of a 384-well polypropylene plate, 1 µL DMSO (control) or test compounds at indicated concentrations were added, followed by the addition of 24.5 µL enzyme mix [50 mM Tris-HCl, 50 mM NaCl, 0.015% (w/v) BSA, 5 mM MgCl2, 2 mM β-mercaptoethanol, 760 µM NADH, 330 nM PEPC, 100 µM PLP and 284 nM hDDC, pH 8.05], and 24.5 µL substrate mix [50 mM Tris-HCl containing 50 mM NaCl, 0.015% (w/v) BSA, 5 mM MgCl2, 2 mM β-mercaptoethanol, 10 mM PPPA, 0.49 U MDH and 1.5 mM L-DOPA, pH 8.05]. The plate was sealed and incubated for 1 h in 37 °C. The OD was taken at 340 nm.

[2] = biological target: Cystathionine gamma-lyase (Homo sapiens, UniProt P32929); assay: Human CSE enzyme assay; details: pH 7; 37 °C
Experimental: 500 nM hCSE in optimal buffer (50 mM Hepes, pH 7.0; final concentration) was incubated with compound for 45 min in the 192-tandem-well plate before adding substrate (5 mM L-cysteine; final concentration). The reaction was then incubated at 37 °C for 60 min before the absorbance at 413 nm of DTNB was measured.

Chain of Cystathionine gamma-lyase (P32929 whole entry): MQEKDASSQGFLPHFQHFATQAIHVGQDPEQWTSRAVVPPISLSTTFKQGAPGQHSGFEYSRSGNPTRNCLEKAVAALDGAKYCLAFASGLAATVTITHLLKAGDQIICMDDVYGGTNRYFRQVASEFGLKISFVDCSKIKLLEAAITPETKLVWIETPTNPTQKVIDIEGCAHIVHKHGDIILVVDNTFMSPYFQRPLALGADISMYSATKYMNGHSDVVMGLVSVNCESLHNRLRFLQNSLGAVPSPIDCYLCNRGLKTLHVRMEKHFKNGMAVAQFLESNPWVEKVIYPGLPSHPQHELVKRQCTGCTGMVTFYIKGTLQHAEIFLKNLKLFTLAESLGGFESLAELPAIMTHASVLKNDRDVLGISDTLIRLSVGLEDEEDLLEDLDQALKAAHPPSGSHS

Q: Which IC50 [1] does the source give for `COc1ccc(CCCc2ccc(O)c(OC)c2)c(O)c1` [1-(2-hydroxy-4-meth-oxyphenyl)-3-(4-hydroxy-3-methoxyphenyl)propane (12)] here?
A: > 200 µM

Q: What about the IC50 [2] of the same molecule?
A: > 200 µM

Q: Which results are given for `COc1cc(OC)c2c(c1)O[C@@H](c1ccc(O)c(O)c1)CC2` [(2R)-3′,4′-Dihydroxy-5,7-methoxyflavan (14)]?
A: IC50 [1]: > 200 µM; IC50 [2]: > 200 µM

Q: What does the source list for `COc1ccc2c(c1)O[C@@H](c1ccc(O)c(O)c1)CC2` [(2R)-3′,4′-Dihydroxy-7-methoxyflavan (13)]?
A: IC50 [1]: > 200 µM; IC50 [2]: > 200 µM

Q: Which results are given for `COc1cc(CC=C(c2cc(O)c(OC)cc2O)c2c(OC)cc3c(c2O)CCC(c2ccc(O)c(O)c2)O3)ccc1O` (stereo not drawn) [(+)-Euonyquinone C (9)]?
A: IC50 [1]: 100 µM; IC50 [2]: > 200 µM

Q: With `COc1cc(CCCc2ccc(OC)c(O)c2OC)ccc1O` [Broussonin F (11)] as the molecule, how does the IC50 [1] read?
A: > 200 µM

Q: And the IC50 [2]?
A: > 200 µM

Q: `COc1cc(CC=C(c2cc(O)c(OC)cc2O)c2cc(CCCc3ccc(O)c(OC)c3)c(O)cc2OC)ccc1O` [Combrequinone B (6)] was tested. Which IC50 [1] did it give?
A: 21.6 µM

Q: What about the IC50 [2] of the same molecule?
A: > 200 µM

Q: `COc1cc(CCCc2cc(C(CCc3ccc(O)c(OC)c3)c3cc(OC)c(OC)cc3O)c(OC)cc2O)ccc1O` (stereo not drawn) [Euonydiarylpropane A (1)] was tested. Which IC50 [1] did it give?
A: 100 µM

Q: What about the IC50 [2] of the same molecule?
A: > 200 µM

Q: For `COc1cc(CCCc2cc(C(CCc3ccc(O)c(OC)c3)c3cc(OC)c(OC)cc3O)c(O)cc2OC)ccc1O` (stereo not drawn) [Euonydiarylpropane B (2)], which IC50 [1] is on record?
A: 100 µM

Q: What about the IC50 [2] of the same molecule?
A: > 200 µM

Q: How did the IC50 [1] turn out when `COc1ccc(C(CCc2ccc(O)c(OC)c2)c2cc(CCCc3ccc(O)c(OC)c3)c(O)cc2OC)c(O)c1` (stereo not drawn) [Euonydiarylpropane C (3)] was run?
A: > 200 µM

Q: And the IC50 [2]?
A: > 200 µM

Q: How did the IC50 [1] turn out when `COc1cc(CCCc2cc(C(CCc3ccc(O)c(OC)c3)c3cc(O)c(OC)cc3OC)c(O)cc2OC)ccc1O` (stereo not drawn) [Euonydiarylpropane D (4)] was run?
A: > 200 µM

Q: And the IC50 [2]?
A: > 200 µM

Q: What does the source list for `COC1=CC(=O)C(CC(=O)Cc2ccc(O)c(OC)c2)=C(c2cc(CCCc3ccc(O)c(OC)c3)c(OC)cc2O)C1=O` [Euonyquinone A (5)]?
A: IC50 [1]: 11.5 µM; IC50 [2]: > 200 µM

Q: For `COc1cc(CC=C(c2cc(O)c(OC)cc2O)c2c(OC)cc3c(c2O)CCC(c2ccc(O)c(OC)c2)O3)ccc1O` (stereo not drawn) [Euonyquinone B (7)], which IC50 [1] is on record?
A: 50 µM

Q: And the IC50 [2]?
A: > 200 µM

Q: Which IC50 [1] does the source give for `COc1cc(CCCc2ccc(O)cc2OC)ccc1O` [Griffithane B (10)] here?
A: > 200 µM

Q: What about the IC50 [2] of the same molecule?
A: > 200 µM

Q: For `C[C@](N)(Cc1ccc(O)c(O)c1)C(=O)O` [SMR000059170], which IC50 [1] is on record?
A: 1200 µM

Q: What about the IC50 [2] of the same molecule?
A: 3000 µM
